The values below come from patent US9884063B2, “Amido-substituted azole compounds” (Bayer Pharma Aktiengesellschaft, priority 2014, dated 2018).

The test system of test [1] is wildtype Wnt signaling cascade. As to the kind of experiment: HEK293 TOP Assay (Super TopFlash luciferase reporter, Wnt-3a stimulated). In kind it is cell-based. An outline of the steps: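 HEK293 cells stably carrying Super TopFlash (TOP) or FOP reporter, stimulated with recombinant human Wnt-3a (2500–5 ng/ml, two-fold steps). Both lines incubated in parallel with compound from 50 μM to 15 nM (3.16-fold) in CAFTY buffer pH 7.4 with 2 mM Ca2+ and 0.01% BSA; selectivity judged TOP vs FOP.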

In test [2] the target is T1, TNKS1 (Homo sapiens, UniProt O95271).
T1 sequence (O95271 1-1327): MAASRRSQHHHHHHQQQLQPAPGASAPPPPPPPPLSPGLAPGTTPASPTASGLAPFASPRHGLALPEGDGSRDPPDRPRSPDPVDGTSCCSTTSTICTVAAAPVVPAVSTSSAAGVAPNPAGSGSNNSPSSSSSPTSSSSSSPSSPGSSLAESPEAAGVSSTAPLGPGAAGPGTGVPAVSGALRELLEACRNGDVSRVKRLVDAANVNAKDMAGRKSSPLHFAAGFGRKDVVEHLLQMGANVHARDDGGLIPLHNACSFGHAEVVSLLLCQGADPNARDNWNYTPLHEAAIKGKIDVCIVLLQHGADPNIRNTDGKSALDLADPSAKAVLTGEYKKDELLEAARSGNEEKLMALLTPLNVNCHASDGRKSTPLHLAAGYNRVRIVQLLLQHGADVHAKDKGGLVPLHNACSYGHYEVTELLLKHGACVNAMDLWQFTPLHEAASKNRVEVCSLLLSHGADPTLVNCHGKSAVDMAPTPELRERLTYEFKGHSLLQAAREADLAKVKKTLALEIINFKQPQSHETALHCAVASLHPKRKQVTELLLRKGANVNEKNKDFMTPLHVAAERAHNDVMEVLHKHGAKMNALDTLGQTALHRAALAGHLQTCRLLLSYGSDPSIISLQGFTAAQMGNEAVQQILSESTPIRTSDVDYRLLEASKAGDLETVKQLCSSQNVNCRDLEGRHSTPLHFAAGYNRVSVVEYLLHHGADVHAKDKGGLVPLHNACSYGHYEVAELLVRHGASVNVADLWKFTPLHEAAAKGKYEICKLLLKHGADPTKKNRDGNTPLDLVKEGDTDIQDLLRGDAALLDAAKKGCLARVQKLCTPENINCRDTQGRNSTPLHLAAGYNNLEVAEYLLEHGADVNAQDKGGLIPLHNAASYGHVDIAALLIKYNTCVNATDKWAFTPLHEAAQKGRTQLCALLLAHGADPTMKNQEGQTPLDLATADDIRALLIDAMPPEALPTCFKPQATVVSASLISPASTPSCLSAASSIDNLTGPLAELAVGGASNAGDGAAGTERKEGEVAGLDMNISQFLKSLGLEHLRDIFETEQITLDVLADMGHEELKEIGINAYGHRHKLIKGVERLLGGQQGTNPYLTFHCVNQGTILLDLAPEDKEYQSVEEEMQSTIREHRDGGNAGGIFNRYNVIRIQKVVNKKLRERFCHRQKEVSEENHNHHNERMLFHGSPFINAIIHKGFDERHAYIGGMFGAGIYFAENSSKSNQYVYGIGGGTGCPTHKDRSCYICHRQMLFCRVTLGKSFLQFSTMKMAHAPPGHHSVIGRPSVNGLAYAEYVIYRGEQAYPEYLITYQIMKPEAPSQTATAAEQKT
As to the kind of experiment: Modified TNKS1 Assay 2 (auto-parsylation, [3H]-NAD+ SPA). The note with it: 6 nM TNKS1, 96 well. Format: biochemical.

Where [3] appears, read: Homo sapiens, HEK293, 16 h, HEK293 TOP reporter cell line, Wnt-3a at EC50, 16 hours incubation, compound dilution series 50 μM to 15 nM.

As for `O=C(Nc1ccc(NC(=O)c2[nH]cnc2C(=O)NC2CC2)cc1)c1cc(F)c(F)cc1Cl` [Example 51, N^5-{4-[(2-chloro-4,5-difluorobenzoyl)amino]phenyl}-N^4-cyclopropyl-1H-imidazole-4,5-dicarboxamide], the IC50 in test [1] (setting [3]) is 0.14 µM; in test [2], 0.02 µM.

For the compound `CNC(=O)c1nc[nH]c1C(=O)Nc1ccc(NC(=O)c2ccc(F)c(Cl)c2F)cc1` [Example 359, N^5-{4-[(3-chloro-2,4-difluorobenzoyl)amino]phenyl}-N^4-methyl-1H-imidazole-4,5-dicarboxamide], the results for the IC50 in test [1] (setting [3]) and in test [2] were 8.6 µM and more than 10 µM, respectively.

With `Cc1cc(NC(=O)c2[nH]cnc2C(=O)NCCN(C)C)ccc1NC(=O)c1ccc(F)cc1Cl` [Example 84, N^5-{4-[(2-chloro-4-fluorobenzoyl)amino]-3-methylphenyl}-N^4-[2-(dimethylamino)ethyl]-1H-imidazole-4,5-dicarboxamide], the IC50 came out at 0.62 µM in test [1] (setting [3]) and 0.17 µM in test [2].

As to `CNC(=O)c1nc[nH]c1C(=O)Nc1ccc(NC(=O)c2c(C)cccc2F)cc1` [Example 375, N^5-{4-[(2-fluoro-6-methylbenzoyl)amino]phenyl}-N^4-methyl-1H-imidazole-4,5-dicarboxamide], the IC50 in test [1] (setting [3]) came to 1.12 µM; in test [2], 1.2 µM.

On to `CNC(=O)c1nc[nH]c1C(=O)Nc1ccc(NC(=O)c2ccc(C)c(Cl)c2)cc1` [Example 344, N^5-{4-[(3-chloro-4-methylbenzoyl)amino]phenyl}-N^4-methyl-1H-imidazole-4,5-dicarboxamide], for which the IC50 is 27 µM in test [1] (setting [3]) and more than 10 µM in test [2].

For `CNC(=O)c1nc[nH]c1C(=O)Nc1ccc(NC(=O)c2cc(C(F)(F)F)ccc2Cl)cc1` [Example 352, N^5-(4-{[2-chloro-5-(trifluoromethyl)benzoyl]amino}phenyl)-N^4-methyl-1H-imidazole-4,5-dicarboxamide], the IC50 in test [1] (setting [3]) turned out to be 0.71 µM; in test [2] it was 0.58 µM.

Take `CNC(=O)c1nc[nH]c1C(=O)Nc1ccc(NC(=O)c2cc(Cl)ccc2Cl)cc1` [Example 309, N^5-{4-[(2,5-dichlorobenzoyl)amino]phenyl}-N^4-methyl-1H-imidazole-4,5-dicarboxamide]: the results for the IC50 in test [1] (setting [3]) and in test [2] were 0.24 µM and 0.41 µM, respectively.

Regarding `CCNC(=O)c1nc[nH]c1C(=O)Nc1ccc(NC(=O)c2cnccc2Cl)cc1` [Example 263, N^5-(4-{[(4-chloropyridin-3-yl)carbonyl]amino}phenyl)-N^4-ethyl-1H-imidazole-4,5-dicarboxamide], the IC50 in test [1] (setting [3]) stood at 0.36 µM; in test [2], 0.3 µM.

As to `CNC(=O)c1nc[nH]c1C(=O)Nc1ccc(NC(=O)c2c(C)cccc2Cl)cc1` [Example 343, N^5-{4-[(2-chloro-6-methylbenzoyl)amino]phenyl}-N^4-methyl-1H-imidazole-4,5-dicarboxamide], the IC50 was determined as 1.45 µM in test [1] (setting [3]) and 2 µM in test [2].

As to `COC(=O)c1nc[nH]c1C(=O)Nc1ccc(NC(=O)c2ccc(F)cc2Cl)c(F)c1` [Example 71, methyl 5-({4-[(2-chloro-4-fluorobenzoyl)amino]-3-fluorophenyl}carbamoyl)-1H-imidazole-4-carboxylate], the IC50 came to 0.34 µM in test [1] (setting [3]) and 0.1 µM in test [2].

With `CNC(=O)c1nc[nH]c1C(=O)Nc1ccc(NC(=O)c2cc(F)ccc2OC)cc1` [Example 364, N^5-{4-[(5-fluoro-2-methoxybenzoyl)amino]phenyl}-N^4-methyl-1H-imidazole-4,5-dicarboxamide], the IC50 was 50 µM in test [1] (setting [3]) and 6.1 µM in test [2].

Consider `CNC(=O)c1nc[nH]c1C(=O)Nc1ccc(NC(=O)c2ncccc2C)cc1` [Example 356, N^4-methyl-N^5-(4-{[(3-methylpyridin-2-yl)carbonyl]amino}phenyl)-1H-imidazole-4,5-dicarboxamide], for which the IC50 in test [1] (setting [3]) turned out to be 0.72 µM; in test [2] it was 2 µM.

Consider `NCCNC(=O)c1[nH]cnc1C(=O)Nc1ccc(NC(=O)c2ccc(F)cc2Cl)cc1` [Example 290, N^5-(2-aminoethyl)-N^4-{4-[(2-chloro-4-fluorobenzoyl)amino]phenyl}-1H-imidazole-4,5-dicarboxamide], for which the IC50 in test [1] (setting [3]) came to 0.71 µM; in test [2] it was 0.04 µM.

`CC(CN1CCOCC1)NC(=O)c1[nH]cnc1C(=O)Nc1ccc(NC(=O)c2ccc(F)cc2Cl)cc1` (single isomer, unassigned; enantiomer 2) [Example 270, N^4-{4-[(2-chloro-4-fluorobenzoyl)amino]phenyl}-N^5-[1-(morpholin-4-yl)propan-2-yl]-1H-imidazole-4,5-dicarboxamide (enantiomer 2)]: the IC50 was determined as 0.04 µM in test [1] (HEK293 TOP reporter cell line, Wnt-3a at EC50, 16 hours incubation, compound dilution series 50 μM to 15 nM) and 0.004 µM in test [2].

Turning to `O=C(Nc1ccc(NC(=O)c2[nH]cnc2C(=O)NCCc2cccnc2)cc1)c1ccc(F)cc1Cl` [Example 405, N^5-{4-[(2-chloro-4-fluorobenzoyl)amino]phenyl}-N^4-[2-(pyridin-3-yl)ethyl]-1H-imidazole-4,5-dicarboxamide], the IC50 stood at 0.71 µM in test [1] (setting [3]) and 0.1 µM in test [2].

In the case of `CNC(=O)c1nc[nH]c1C(=O)Nc1ccc(NC(=O)c2cc(C)ccn2)cc1` [Example 363, N^4-methyl-N^5-(4-{[(4-methylpyridin-2-yl)carbonyl]amino}phenyl)-1H-imidazole-4,5-dicarboxamide], the IC50 in test [1] (setting [3]) is 50 µM; in test [2], more than 10 µM.

`O=C(Nc1ccc(NC(=O)c2[nH]cnc2C(=O)N2CC3(COC3)C2)cc1)c1cc(F)c(F)cc1Cl` [Example 52, N-{4-[(2-chloro-4,5-difluorobenzoyl)amino]phenyl}-4-(2-oxa-6-azaspiro[3.3]hept-6-ylcarbonyl)-1H-imidazole-5-carboxamide]: the figures for the IC50 in test [1] (setting [3]) and in test [2] were 0.61 µM and 0.03 µM, respectively.

As for `CNC(=O)c1nc[nH]c1C(=O)Nc1ccc(NC(=O)c2c(F)ccc(F)c2Cl)cc1` [Example 374, N^5-{4-[(2-chloro-3,6-difluorobenzoyl)amino]phenyl}-N^4-methyl-1H-imidazole-4,5-dicarboxamide], the IC50 in test [1] (setting [3]) is 1.8 µM; in test [2], 1.6 µM.

For the compound `O=C(Nc1ccc(NC(=O)c2nc[nH]c2C(=O)N[C@H]2CCNC2)cc1)c1ccc(F)cc1Cl` [Example 281, N^4-{4-[(2-chloro-4-fluorobenzoyl)amino]phenyl}-N^5-[(3S)-pyrrolidin-3-yl]-1H-imidazole-4,5-dicarboxamide], the IC50 is 1.2 µM in test [1] (setting [3]) and 0.06 µM in test [2].

As to `CNC(=O)c1nc[nH]c1C(=O)Nc1ccc(NC(=O)c2cccc(F)c2Cl)cc1` [Example 370, N^5-{4-[(2-chloro-3-fluorobenzoyl)amino]phenyl}-N^4-methyl-1H-imidazole-4,5-dicarboxamide], the IC50 in test [1] (setting [3]) is 4.95 µM; in test [2] it was more than 10 µM.

For `CNC(=O)c1nc[nH]c1C(=O)Nc1ccc(NC(=O)c2c(Cl)cccc2C(F)(F)F)cc1` [Example 36, N^5-(4-{[2-chloro-6-(trifluoromethyl)benzoyl]amino}phenyl)-N^4-methyl-1H-imidazole-4,5-dicarboxamide], the IC50 was 6.15 µM in test [1] (setting [3]); 6.15 µM in test [1] (Homo sapiens, HEK293, 16 h, HEK293 TOP reporter cells, Wnt3a at EC50, 16 hours, luciferase); more than 10 µM in test [2].

As for `CNC(=O)c1nc[nH]c1C(=O)Nc1ccc(NC(=O)c2cncc(C)c2)cc1` [Example 366, N^4-methyl-N^5-(4-{[(5-methylpyridin-3-yl)carbonyl]amino}phenyl)-1H-imidazole-4,5-dicarboxamide], the IC50 was 50 µM in test [1] (setting [3]) and more than 10 µM in test [2].
